# Measured values from ChEMBL document CHEMBL5303304, “EUbOPEN Chemogenomics Library - IncuCyte” (2023).
# Legend:
# Assay type in all cases: toxicity, cell-based
# HEK-293T = assay: Incucyte cell viability with HEK293T; conditions: human, 10 µM, compound concentration 10 uM
# Fibroblast = assay: Incucyte cell viability with human fibroblast; conditions: 10 µM, compound concentration 10 uM
# U2OS = assay: Incucyte cell viability with U2OS; conditions: human, 10 µM, compound concentration 10 uM
# Also: unitless GR value; below 1 slowed growth and below 0 cell loss.
Compound,"Growth Rate (HEK-293T; 0 h, replicate number 2)","Growth Rate (HEK-293T; 12 h, replicate number 2)","Growth Rate (HEK-293T; 18 h, replicate number 1)","Growth Rate (HEK-293T; 18 h, replicate number 2)","Growth Rate (HEK-293T; 24 h, replicate number 1)","Growth Rate (HEK-293T; 24 h, replicate number 2)","Growth Rate (Fibroblast; 12 h, replicate number 2)","Growth Rate (Fibroblast; 24 h, replicate number 1)","Growth Rate (U2OS; 0 h, replicate number 1)","Growth Rate (U2OS; 0 h, replicate number 2)","Growth Rate (U2OS; 6 h, replicate number 2)","Growth Rate (U2OS; 12 h, replicate number 2)","Growth Rate (HEK-293T; 6 h, replicate number 1)","Growth Rate (HEK-293T; 12 h, replicate number 1)","Growth Rate (Fibroblast; 6 h, replicate number 1)","Growth Rate (Fibroblast; 12 h, replicate number 1)","Growth Rate (Fibroblast; 18 h, replicate number 1)","Growth Rate (Fibroblast; 18 h, replicate number 2)","Growth Rate (Fibroblast; 24 h, replicate number 2)","Growth Rate (Fibroblast; 6 h, replicate number 2)",further results
COc1ccc(CC[C@@H](OC(=O)[C@@H]2CCCCN2C(=O)[C@H](c2cc(OC)c(OC)c(OC)c2)C2CCCCC2)c2cccc(OCCN3CCOCC3)c2)cc1OC,-0.44,0.38,0.94,0.26,0.27,0.24,0.99,0.97,-1,-0.99,0.91,0.8,,,,,,,,,"Growth Rate (Fibroblast; 0 h, replicate number 1): -1; Growth Rate (U2OS; 18 h, replicate number 2): 0.78; Growth Rate (U2OS; 24 h, replicate number 2): 0.73"
CSc1ccc(C[C@@H](C)C(=O)O)cc1Nc1nc(N2CC[C@H](N(C)C)C2)cc(C(F)F)c1C#N.O=C(O)C(F)(F)F,,0.58,0.43,0.51,0.48,0.58,0.34,0.3,,,,,0.25,0.39,-0.12,0.16,0.21,0.8,0.79,,"Growth Rate (Fibroblast; 0 h, replicate number 1): -1; Growth Rate (U2OS; 6 h, replicate number 1): 0.8"
CN(c1ccc(C(F)(F)F)cc1)S(=O)(=O)c1ccc(C(=O)Nc2nc(-c3ccccn3)cs2)cc1,,,,0.84,0.82,0.76,,0.92,-1,,0.76,0.65,,,,,,,0.82,,"Growth Rate (U2OS; 18 h, replicate number 1): 0.94; Growth Rate (U2OS; 24 h, replicate number 2): 1"
O=S(=O)(Nc1ccc(C(O)(C(F)(F)F)C(F)(F)F)cc1)c1cccs1,,0.89,0.88,,0.87,0.9,,,-0.75,0.65,,,0.89,,,0.76,0.89,0.93,0.87,0.87,"Growth Rate (Fibroblast; 0 h, replicate number 2): 0.56; Growth Rate (U2OS; 6 h, replicate number 1): 0.58; Growth Rate (U2OS; 12 h, replicate number 1): 0.46; Growth Rate (U2OS; 18 h, replicate number 1): 0.7; Growth Rate (U2OS; 24 h, replicate number 1): 0.8"
O=C(O)C[C@H]1CC[C@H](c2ccc(NC(=O)c3nnc(Nc4ccc(F)c(F)c4)o3)cc2)CC1,-0.23,,0.76,,0.86,,,,,,0.7,0.72,0.74,0.69,,,,,0.99,0.97,"Growth Rate (HEK-293T; 0 h, replicate number 1): 0.29; Growth Rate (U2OS; 18 h, replicate number 2): 0.93; Growth Rate (U2OS; 24 h, replicate number 2): 0.96"
Cl.O=C(c1ccc(-c2ccc(Cl)cc2)o1)N(Cc1ccccn1)c1ccc(N2CCNCC2)cc1,,0.52,0.76,0.43,0.48,0.25,-0.6,,,-0.97,0.57,0.87,,,-0.62,-1,,-0.43,-0.32,-1,
CN[C@@H](C)C(=O)N[C@H](C(=O)N1CCC[C@H]1c1nc(C(=O)c2ccc(F)cc2)cs1)C1CCCCC1 [LCL-161],-0.96,0.95,0.53,,0.84,,,,-0.08,,,,0.22,0.4,,,,0.88,0.85,0.19,"Growth Rate (HEK-293T; 6 h, replicate number 2): 0.84; Growth Rate (U2OS; 6 h, replicate number 1): 0.45; Growth Rate (U2OS; 12 h, replicate number 1): 0.96; Growth Rate (U2OS; 18 h, replicate number 1): 0.91"
Nc1nccc(-c2ccn3c(N)nccc23)n1,-0.48,,,,0.97,,,,,-0.76,,,,,0.9,-0.17,0.49,,,,"Growth Rate (HEK-293T; 0 h, replicate number 1): -0.56; Growth Rate (Fibroblast; 0 h, replicate number 1): 0.88; Growth Rate (U2OS; 12 h, replicate number 1): 0.76; Growth Rate (U2OS; 18 h, replicate number 1): 0.84"
NC(=O)OC[C@H](NC(=O)Cn1nc(-c2ccc(Cl)cc2)n(C[C@H](O)C(F)(F)F)c1=O)c1cccc(C(F)(F)F)c1,-0.43,,0.84,0.83,0.71,0.79,0.75,0.84,0.95,,,,,0.8,0.56,0.83,0.71,0.65,0.7,-0.17,"Growth Rate (HEK-293T; 0 h, replicate number 1): 0.72; Growth Rate (Fibroblast; 0 h, replicate number 2): 0.27; Growth Rate (U2OS; 6 h, replicate number 1): 0.83; Growth Rate (U2OS; 12 h, replicate number 1): 0.85; Growth Rate (U2OS; 24 h, replicate number 1): 0.9"
